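1) Cells in 96-well plates. 2) Compound, 48 h, 5 concentrations. 3) Linear interpolation between surrounding doses. 4) Unreached endpoint = highest concentration. GI50: concentration for 50% inhibition of growth.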 The source made the active and inactive calls. Cut-off read from the data, not from the text of the source: active = GI50 up to about 1.1 µM and inactive = higher.
Tests used:
Assay in all cases: DTP human tumour cell line panel, 48 h
RPMI-8226 = tested on: RPMI-8226
HL-60 = tested on: HL-60
SF-539 = tested on: SF-539
NCI-H23 = tested on: NCI-H23
TK-10 = tested on: TK-10
UO-31 = tested on: UO-31
UACC-62 = tested on: UACC-62
SNB-19 = tested on: SNB-19
HT-29 = tested on: HT-29
MOLT-4 = tested on: MOLT-4
SK-MEL-2 = tested on: SK-MEL-2
NCI-H460 = tested on: NCI-H460
OVCAR-3 = tested on: OVCAR-3
IGROV-1 = tested on: IGROV-1
HOP-92 = tested on: HOP-92
SR = tested on: SR
CAKI-1 = tested on: CAKI-1
SK-OV-3 = tested on: SK-OV-3
SW-620 = tested on: SW-620
OVCAR-5 = tested on: OVCAR-5

Measured: GI50

O=c1cc(O)c1=O
inactive: RPMI-8226 > 100 µM | HL-60 > 100 µM | SF-539 > 100 µM | NCI-H23 > 100 µM | TK-10 > 100 µM | UO-31 > 100 µM | UACC-62 > 100 µM | SNB-19 > 100 µM | HT-29 > 100 µM | MOLT-4 > 100 µM | SK-MEL-2 > 100 µM | NCI-H460 > 100 µM | OVCAR-3 > 100 µM | IGROV-1 > 100 µM | HOP-92 > 100 µM | SR > 100 µM | CAKI-1 > 100 µM | SK-OV-3 > 100 µM | SW-620 > 100 µM | OVCAR-5 > 100 µM

Reference: ChEMBL document CHEMBL1201862, “PubChem BioAssay data set” (2004)
